We go through 43 compounds from ChEMBL document CHEMBL1145583, “2,5-Diaminopyrimidines and 3,5-disubstituted azapurines as inhibitors of glycogen synthase kinase-3 (GSK-3)” (Bioorg Med Chem Lett, 2008).

In data set [1] the target is T1, Glycogen synthase kinase-3 beta (Homo sapiens, UniProt P49841). Briefly: Inhibition of GSK3-beta.
Target sequence in this assay (P49841 whole entry): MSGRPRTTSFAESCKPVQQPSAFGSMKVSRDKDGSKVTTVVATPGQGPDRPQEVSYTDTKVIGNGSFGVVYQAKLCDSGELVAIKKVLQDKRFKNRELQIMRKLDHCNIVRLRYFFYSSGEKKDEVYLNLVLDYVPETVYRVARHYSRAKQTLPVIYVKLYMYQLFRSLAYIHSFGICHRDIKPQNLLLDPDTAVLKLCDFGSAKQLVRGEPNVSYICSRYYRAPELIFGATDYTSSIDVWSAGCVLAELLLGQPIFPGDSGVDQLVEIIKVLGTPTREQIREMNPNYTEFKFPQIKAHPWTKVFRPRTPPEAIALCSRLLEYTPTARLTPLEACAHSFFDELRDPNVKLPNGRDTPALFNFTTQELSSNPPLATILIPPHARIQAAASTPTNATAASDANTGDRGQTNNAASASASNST
The target in data set [2] is T2, Glycogen synthase kinase-3 alpha (Homo sapiens, UniProt P49840). Kind of data set: Inhibition of GSK3alpha.
Target sequence in this assay (P49840 whole entry): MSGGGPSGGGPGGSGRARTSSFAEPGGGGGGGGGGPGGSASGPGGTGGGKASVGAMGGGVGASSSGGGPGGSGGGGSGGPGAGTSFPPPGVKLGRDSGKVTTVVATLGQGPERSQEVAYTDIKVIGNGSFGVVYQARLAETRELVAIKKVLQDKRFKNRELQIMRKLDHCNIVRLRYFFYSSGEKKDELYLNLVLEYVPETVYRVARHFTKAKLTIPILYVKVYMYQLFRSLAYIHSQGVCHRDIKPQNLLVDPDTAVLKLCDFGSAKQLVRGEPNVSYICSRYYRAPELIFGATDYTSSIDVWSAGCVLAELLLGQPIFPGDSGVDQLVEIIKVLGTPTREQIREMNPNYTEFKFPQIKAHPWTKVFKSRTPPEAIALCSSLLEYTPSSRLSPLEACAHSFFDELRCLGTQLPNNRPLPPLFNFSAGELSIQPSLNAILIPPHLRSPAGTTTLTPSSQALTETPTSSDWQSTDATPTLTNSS
The target in another data set is T3, Aurora kinase A (Homo sapiens, UniProt O14965).
T3 sequence (O14965 whole entry): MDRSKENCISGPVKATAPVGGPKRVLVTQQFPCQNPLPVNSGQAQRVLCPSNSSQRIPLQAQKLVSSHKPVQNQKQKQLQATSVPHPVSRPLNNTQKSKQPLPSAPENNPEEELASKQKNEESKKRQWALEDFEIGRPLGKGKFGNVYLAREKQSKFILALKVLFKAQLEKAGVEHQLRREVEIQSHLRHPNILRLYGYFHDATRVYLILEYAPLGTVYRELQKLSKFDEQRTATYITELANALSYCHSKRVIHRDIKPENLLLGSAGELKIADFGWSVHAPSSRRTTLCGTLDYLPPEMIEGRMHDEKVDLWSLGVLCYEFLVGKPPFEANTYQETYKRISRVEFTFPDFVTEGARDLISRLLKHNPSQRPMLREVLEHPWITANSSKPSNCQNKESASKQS
Briefly: Inhibition of Aurora A.

Data set [3] has as its target T4, Aurora kinase A (Homo sapiens) (UniProt O14965).
T4 sequence (whole entry): T3 sequence (O14965 whole entry)
Briefly: Inhibition of Aurora A at 10 uM.

Data set [4] concerns the target T2, Glycogen synthase kinase-3 alpha. Briefly: Inhibition of GSK3-alpha at 10 uM.
Target sequence in this assay (P49840 2-483 limits assumed): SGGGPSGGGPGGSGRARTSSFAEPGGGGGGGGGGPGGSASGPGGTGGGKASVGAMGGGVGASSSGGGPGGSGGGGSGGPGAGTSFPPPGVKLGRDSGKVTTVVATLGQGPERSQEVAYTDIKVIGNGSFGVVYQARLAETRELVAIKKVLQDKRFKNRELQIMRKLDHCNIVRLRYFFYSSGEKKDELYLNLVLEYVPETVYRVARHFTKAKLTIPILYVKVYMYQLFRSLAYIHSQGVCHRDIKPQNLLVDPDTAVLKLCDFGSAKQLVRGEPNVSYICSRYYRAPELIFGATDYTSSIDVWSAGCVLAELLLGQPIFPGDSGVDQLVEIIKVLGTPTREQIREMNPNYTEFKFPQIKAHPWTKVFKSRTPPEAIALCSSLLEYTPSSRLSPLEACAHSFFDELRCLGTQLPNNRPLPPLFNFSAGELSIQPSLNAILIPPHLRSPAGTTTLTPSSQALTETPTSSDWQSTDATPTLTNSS
In data set [5] the target is T1, Glycogen synthase kinase-3 beta. Briefly: Inhibition of GSK3-beta at 10 uM.
Target sequence in this assay (P49841 whole entry, looked up): as the sequence (P49841 whole entry) above
Data set [6] can be described thus: Volume of distribution at steady state in rat at 5 mg/kg, iv. The format is ADME, organism-based. Set-up: dose 5 mg/kg, route intravenous. The settings on record: in vivo, read-out: Vdss.
A short description of data set [7]: Clearance in rat at 5 mg/kg, iv. Type of data set: ADME, organism-based. The arrangement: dose 5 mg/kg, route intravenous. The settings on record: in vivo.
Data set [8] is described as follows: AUC in rat at 20 mg/kg, po. The format is ADME, organism-based. The arrangement: dose 20 mg/kg, route oral. The settings on record: plasma.
Data set [9] can be described thus: Cmax in rat at 20 mg/kg, po. The settings on record: in vivo. The arrangement: dose 20 mg/kg, route oral. Type of data set: ADME, organism-based.
Data set [10] is described as follows: Tmax in rat at 20 mg/kg, po. Type of data set: ADME, organism-based. Set-up: dose 20 mg/kg, route oral. The settings on record: in vivo.
Data set [11] in a line: AUC in rat at 5 mg/kg, iv. Type of data set: ADME, organism-based. Set-up: dose 5 mg/kg, route intravenous. The settings on record: plasma.
The nature of data set [12]: Oral bioavailability in rat at 20 mg/kg. The format is ADME, organism-based. The settings on record: in vivo.
A short description of data set [13]: Half life in rat at 5 mg/kg, iv. Type of data set: ADME, organism-based. The arrangement: dose 5 mg/kg, route intravenous. The settings on record: in vivo.
Data set [14] is described as follows: Cmax in rat at 5 mg/kg, iv. Type of data set: ADME, organism-based. Set-up: dose 5 mg/kg, route intravenous. The settings on record: in vivo.
The nature of data set [15]: Half life in rat at 20 mg/kg, po. The settings on record: in vivo. Set-up: dose 20 mg/kg, route oral. The format is ADME, organism-based.

Turning to `O=C(O)c1ccc(Nc2ncc([N+](=O)[O-])c(NC34CC5CC(CC(C5)C3)C4)n2)cc1`, the IC50 in [1] was determined as 26 nM; in data set [2], 34 nM.

For the compound `O=C(O)/C=C\c1ccc(Nc2ncc3nnn(-c4ccccc4)c3n2)cc1`, the results for the IC50 (against Aurora kinase A; in [1]; in [2]) were 112 nM, 7 nM and 13 nM, respectively.

Regarding `O=[N+]([O-])c1cnc(N[C@H]2CC[C@H](O)CC2)nc1NC12CC3CC(CC(O)(C3)C1)C2`, in data set [3], the inhibition is 33%. The 50% inhibitory concentration (IC50) in [1] stood at 198 nM; in data set [2], 123 nM.

In the case of `O=[N+]([O-])c1cnc(Nc2ccccc2)nc1Nc1ccccc1`, the inhibition in data set [4] amounted to 52%. In data set [1], this compound returned a concentration for half-maximal inhibition (IC50) of 2800 nM.

With `CCn1c(=O)n(-c2ccccc2)c2nc(Nc3ccccc3)ncc21`, the inhibition was 73% in data set [4] and 78% in data set [5]. The compound further yielded an IC50 in [1] of over 10000 nM.

With `O=C(O)COc1ccc(Nc2ncc([N+](=O)[O-])c(Nc3ccccc3)n2)cc1`, the IC50 on Aurora kinase A worked out at 85 nM; in data set [1], 92 nM; in [2] it was 74 nM.

Consider `O=C(O)COc1ccc(Nc2ncc3nnn(-c4ccccc4)c3n2)cc1`, for which the results for the IC50 (at Aurora kinase A; in data set [1]; in data set [2]) were 128 nM, 13 nM and 9 nM, respectively.

For the compound `O=C1CN(c2ccccc2)c2nc(Nc3ccc(C(=O)O)cc3)ncc2N1`, the half-maximal inhibitory concentration (IC50) in [1] is 3500 nM; in data set [2], 6700 nM.

As to `CC(C)(C)n1c(=O)n(-c2ccccc2)c2nc(Nc3ccccc3)ncc21`, the inhibition in data set [4] came out at 88%; in data set [5], 93%. In addition, inhibition in data set [1] was half-maximal at 2400 nM (IC50).

As to `O=c1[nH]c2cnc(Nc3ccccc3)nc2n1-c1ccccc1`, the figures for the inhibition in data set [4] and in data set [5] were -7% and 20%, respectively.

Regarding `OC12CC3CC(C1)CC(Nc1nc(N[C@H]4CC[C@H](O)CC4)ncc1Br)(C3)C2`, in data set [3], the inhibition came out at 69%. The half-inhibitory concentration (IC50) in data set [1] was determined as 125 nM; in data set [2], 91 nM.

Consider `O=C(O)c1ccc(Nc2ncc(F)c(Nc3ccccc3)n2)cc1`, for which the half-maximal inhibitory concentration (IC50) in data set [1] was 4170 nM; in data set [2], 3760 nM.

`CCCCOC(=O)c1ccc(Nc2ncc3[nH]c(=O)n(-c4ccccc4)c3n2)cc1`: the inhibition in data set [4] is 6%; in data set [5] it was -5%.

On to `O=C(O)COc1ccc(Nc2ncc3nnn(C45CC6CC(CC(O)(C6)C4)C5)c3n2)cc1`, for which the IC50 in data set [1] is 169 nM; in data set [2], 96 nM.

As to `OC12CC3CC(C1)CC(n1nnc4cnc(N[C@H]5CC[C@H](O)CC5)nc41)(C3)C2`, the inhibition in [3] came out at 23%. Besides, the results for the IC50 in data set [1] and in data set [2] were 744 nM and 444 nM, respectively.

With `O=C(O)c1ccc(Nc2ncc([N+](=O)[O-])c(NC34CC5CC(CC(O)(C5)C3)C4)n2)cc1`, the concentration for half-maximal inhibition (IC50) against Aurora kinase A came out at 156 nM; in data set [1], 3 nM; in [2] it was 4.5 nM.

For the compound `COC(=O)COc1ccc(Nc2ncc([N+](=O)[O-])c(Nc3ccccc3)n2)cc1`, in data set [5], the inhibition is 41%.

Turning to `OC12CC3CC(C1)CC(Nc1nc(N[C@H]4CC[C@H](O)CC4)ncc1C(F)(F)F)(C3)C2`, the Vd in data set [6] amounted to 0.3 L/kg. The compound also returned a clearance in data set [7] of 4.2 mL/min/kg. Further, the area under the curve (AUC) in [8] was determined as 27400 ng·h/mL; in data set [11] it was 20100 ng·h/mL. Moreover, the highest concentration (Cmax) was determined as 5700 ng/mL in data set [9] and 24200 ng/mL in [14]. In addition, the Tmax in data set [10] was 0.5 h. This compound also had a bioavailability in data set [12] of 34%. The results for the half-life in data set [13] and in data set [15] were 3.7 h and 6.1 h, respectively. Also, in data set [3], the inhibition was found to be 45%. In addition, the IC50 in [1] came out at 41 nM; in data set [2] it was 61 nM.

In the case of `COc1nn(-c2ccccc2)c2nc(Nc3ccc(C(=O)O)cc3)ncc12`, the IC50 was determined as 760 nM in data set [1] and 1900 nM in data set [2].

Turning to `O=[N+]([O-])c1cnc(N[C@H]2CC[C@H](O)CC2)nc1Nc1ccccc1`, the IC50 in data set [1] is 281 nM; in [2] it was 172 nM.

As to `O=C(O)c1ccc(Nc2ncc(-c3ccncc3)c(Nc3ccccc3)n2)cc1`, the IC50 in [1] worked out at 540 nM; in data set [2] it was 1870 nM.

As for `Cn1c(=O)c2cnc(Nc3ccc(C(=O)O)cc3)nc2n1-c1ccccc1`, the IC50 worked out at 960 nM in data set [1] and 1020 nM in data set [2].

Regarding `O=c1n(-c2ccccc2)c2nc(Nc3ccccc3)ncc2n1C1CCCCC1`, the inhibition came out at 16% in [4] and 14% in data set [5].

On to `OC12CC3CC(C1)CC(Nc1nc(N[C@H]4CC[C@H](O)CC4)ncc1Cl)(C3)C2`, for which the inhibition in data set [3] was determined as 65%. Besides, the half-maximal inhibitory concentration (IC50) was found to be 230 nM in data set [1] and 133 nM in [2].

On to `Cn1c(=O)n(-c2ccccc2)c2nc(Nc3ccccc3)ncc21`, for which the inhibition in data set [4] was 94%; in [5], 96%. Besides, in data set [1], the midpoint of inhibition, the IC50, lay at 1700 nM.

In the case of `O=C(O)c1ccc(Nc2ncc3[nH]c(=O)n(-c4ccccc4)c3n2)cc1`, the inhibition was determined as 93% in data set [4] and 88% in data set [5]. In addition, it took 4000 nM to reach half-maximal inhibition in [1] (IC50).

Regarding `O=C1OC(Nc2ncc3nnn(-c4ccccc4)c3n2)c2ccccc21` (stereo not drawn), the IC50 at Aurora kinase A was 7300 nM; in data set [1], 23 nM; in data set [2], 23 nM.

As to `CC(C)n1c(=O)n(-c2ccccc2)c2nc(Nc3ccccc3)ncc21`, the inhibition in [5] came out at 71%. The compound further had an IC50 in data set [1] of 2900 nM.

Turning to `COC(=O)COc1ccc(Nc2ncc3nnn(-c4ccccc4)c3n2)cc1`, the 50% inhibitory concentration (IC50) in data set [1] stood at 477 nM; in [2], 204 nM.

`O=C(O)c1ccc(Nc2ncc3nnn(-c4ccccc4)c3n2)cc1`: the 50% inhibitory concentration (IC50) against Aurora kinase A turned out to be 292 nM; in data set [1], 49 nM; in [2], 32 nM.

In the case of `c1ccc(Nc2ncc3nnn(-c4ccccc4)c3n2)cc1`, the IC50 in [1] turned out to be 628 nM; in data set [2], 330 nM.

Take `O=C(O)c1ccc(Nc2ncc3c(Cl)nn(-c4ccccc4)c3n2)cc1`: the figures for the concentration for half-maximal inhibition (IC50) in data set [1] and in data set [2] were 180 nM and 350 nM, respectively.

For `O=C(O)c1cccc(Nc2ncc3[nH]c(=O)n(-c4ccccc4)c3n2)c1`, the inhibition came out at 1% in [4] and 3% in data set [5].

Consider `O=C(O)CCc1ccc(Nc2ncc3nnn(-c4ccccc4)c3n2)cc1`, for which the IC50 against Aurora kinase A worked out at 375 nM; in data set [1], 24 nM; in data set [2] it was 20 nM.

In the case of `O=C(O)c1ccc(Nc2ncc([N+](=O)[O-])c(Nc3ccccc3)n2)cc1`, the half-maximal inhibitory concentration (IC50) on Aurora kinase A turned out to be 346 nM; in data set [1] it was 150 nM; in data set [2], 270 nM.

In the case of `O=C(O)c1ccc(Nc2ncc(C(F)(F)F)c(Nc3ccccc3)n2)cc1`, the IC50 in data set [1] was found to be 490 nM; in data set [2], 750 nM.

For the compound `O[C@H]1CC[C@H](Nc2ncc3nnn(-c4ccccc4)c3n2)CC1`, in data set [3], the inhibition turned out to be 25%. Further, the IC50 in data set [1] was 279 nM; in data set [2] it was 123 nM.

On to `O=C(O)c1ccc(Nc2ncc3nnn(C45CC6CC(CC(C6)C4)C5)c3n2)cc1`, for which the values for the IC50 (at Aurora kinase A; in [1]; in data set [2]) were 910 nM, 75 nM and 80 nM, respectively.

As for `O=C(O)CCc1ccc(Nc2ncc([N+](=O)[O-])c(NC34CC5CC(CC(C5)C3)C4)n2)cc1`, the IC50 in data set [1] amounted to 105 nM; in data set [2], 38 nM.

With `O=C(O)c1ccc(Nc2ncc(Br)c(Nc3ccccc3)n2)cc1`, the inhibition in [4] was 82%. Besides, the IC50 in data set [1] was found to be 3200 nM.

In data set [2], `OC12CC3CC(C1)CC(Nc1nc(N[C@H]4CC[C@H](O)CC4)ncc1F)(C3)C2` came in with an IC50 of 1500 nM.

Turning to `O=C(O)c1ccc(Nc2ncc3nnn(C45CC6CC(CC(O)(C6)C4)C5)c3n2)cc1`, the half-maximal inhibitory concentration (IC50) is 51 nM in data set [1] and 66 nM in data set [2].

In the case of `O=C(O)c1ccc(Nc2ncc(C3C=NN=N3)c(Nc3ccccc3)n2)cc1` (stereo not drawn), the IC50 worked out at 1170 nM in [1] and 2850 nM in data set [2].
